Results on six compounds are retold here after US20040254129A1, “Use of ethoxylated phytosterols and phytostanols” (priority 2001, published 2004).

Read-outs that look alike come from different tables or passages of the source. Marks after values point to notes of the source that are not given here.

Data set [1] can be described thus: Solubilization of griseofulvin by surfactants (UV absorption spectrometry). The data set is classed as physicochemical. The method, then: For each of the surfactants, four samples with different surfactant concentrations were prepared. The surfactants were dissolved and diluted in pure and filtered water. Griseofulvin was added in excess and the samples were allowed to equilibrate for 4 hours at 45° C. followed by 20 hours at room temperature. The samples were thoroughly shaken during the whole equilibration time. The samples were subsequently centrifuged to remove undissolved griseofulvin. The concentration of dissolved griseofulvin was determined by UV absorption spectrometry. The absorbance was recorded at the wavelength for maximum absorption, λmax=295 nm.
In line with the definition in Example 8, the solubilization capacity becomes [formula]

Data set [2] deals with fresh blood taken from beagle dog (red blood cells). Description: Determination of hemolysis in fresh blood. The settings on record: for Hemolytic activity (concentration range at which 5% hemolysis is obtained): surfactant concentration in blood/surfactant mixture, read from hemolysis curves. The data set is classed as cell-based. As to the method:
100 μl surfactant solution was added to 400 μl fresh blood taken from beagle dog. The blood and surfactant mixture was gently agitated for 2-3 seconds immediately after addition, followed by 10 mins incubation at 37° C. under gentle shaking. […] During centrifugation the sample separated into a sediment of red blood cells and a supernatant. […] Each determination was carried out for triplicate samples.
After 30 minutes 400 μl of the so-obtained solution was mixed with 100 μl normal saline. From the resulting solution, a small fraction was removed and analysed with respect to hemoglobin content with a Cobas Bio spectrophotometer.
The degree of hemolysis was calculated according to the following expression [formula]
The position of the hemolysis curve along the concentration axis in such a diagram determines the hemolytic activity. The more hemolytic a surfactant is, the lower concentration is required to obtain a certain degree of hemolysis. In order to quantify the hemolytic activity, the concentration was considered at which 5% hemolysis was obtained. The higher the concentration, the lower the activity. The procedure was repeated at least once for all surfactants.

Data set [3] concerns erythrocytes extracted from dog blood.
Procedure: (§1) Erythrocytes were extracted from dog blood by a centrifugation—resuspension procedure. The fresh blood was subjected to mild centrifugation at 2000×g for 10 mins. The excessive blood plasma was removed and the so-obtained sediment of erythrocytes was resuspended in normal saline (0.9% NaCl in water). This procedure was repeated twice. The final volume of the erythrocyte suspension was equal to the initial volume of the fresh blood. Surfactant solutions with varying concentration of the surfactant were prepared by dissolving and diluting appropriate amounts of surfactants in 0.9% (w/w) NaCl in water. 100 μl surfactant solution was added to 400 μl erythrocyte suspension. The samples were vigorously agitated for 5 seconds immediately after addition, followed by 20 mins incubation at 37° C. under gentle shaking. The samples were centrifuged for 6 mins at 3000 g and 5° C. The centrifugation separated the samples into sediments of intact erythrocytes and a supernatant. A small fraction of the supernatant was removed and analysed with respect to hemoglobin content. The hemoglobin was allowed to undergo a chemical reaction with H2O2, aminophenazon, and phenol. […] From this concentration, the initial concentration of hemoglobin was calculated. Each determination was carried out for triplicate samples.
(§2) Negative control samples, i.e. samples for the determination of background lysis, were prepared by adding 100 μl normal saline to 400 μl erythrocyte suspension. These samples were treated and analysed in the same way as described above.
(§3) Positive control samples, i.e. samples for the determination of total hemoglobin content, were prepared by diluting the erythrocyte suspension 500 times with distilled water. The dilution caused complete lysis of all erythrocytes, and the concentration of released hemoglobin could be determined as described above.
(§4) The degree of lysis was calculated according to the following expression [formula]
(§5) where % L is the degree of lysis in %, [Hb] the concentration of released hemoglobin in the mixture of erythrocytes and surfactant, [Hb]0 the concentration of released hemoglobin in the negative control (basal hemolysis), and [Hb]tot the total concentration of hemoglobin in the mixtures of erythrocytes and surfactant.
(§6) The degree of lysis was determined as a function of the surfactant concentration in the mixture of erythrocytes and surfactant.
(§7) The activity of each surfactant to cause lysis of erythrocytes is indicated by the position of the lysis curve in the diagram. For a surfactant with low activity, a high concentration is required to obtain a certain degree of lysis. Here, the activity is quantified by considering the concentration at which 10% lysis is obtained. The higher the concentration, the lower the activity.
A short description of data set [4]: Solubilization of felodipine by surfactants (14C scintillation detection). It counts as physicochemical. As to conditions: for solubility of felodipine on addition of the surfactant (in words): 0.9% (w/w) NaCl in water. As to the method:
Both ^14C-labelled and non-labelled felodipine were provided by AstraZeneca AB. In order to obtain a molecularly homogeneous mixture of labelled and non-labelled felodipine, both components were dissolved in chloroform. After a clear solution was obtained, the solvent was evaporated. […] The surfactants were dissolved and diluted in 0.9% (w/w) NaCl in water. The felodipine was added in excess and the samples were allowed to equilibrate for over 48 hours in room temperature under thorough shaking. The samples were filtered using 4 mm Durapore filters (0.45 μm, Millipore) to remove undissolved felodipine. […] From each sample 0.5 ml solution was withdrawn and mixed with 3.5 ml scintillation liquid. The concentration of dissolved felodipine was determined by means of scintillation detection using a Beckman LS6500 scintillation counter.
The solubilization capacity of each surfactant with respect to felodipine was determined by considering the slope of the solubilization curves, α. The slope of each curve, α, describes the additional amount of felodipine that can be dissolved in a solution when a small amount of surfactant is added, which is also the definition of the solubilization capacity. [formula]
The solubilization capacity was calculated by fitting a linear expression to the experimental data and extracting the slope, α.

The conditions of data set [5]: no surfactant; cited from earlier work.
Data set [6] has as its system erythrocytes extracted from dog blood. Description: Determination of the lysis of erythrocytes.
Procedure: as §1, §2, §3, §4, §5, §6, §7
The mark [7] stands for this setting: surfactant 0.00 mM (no surfactant) in 0.9% (w/w) NaCl.

Turning to `CCCCCCCCCCCCO[C@@H]1O[C@H](CO)[C@@H](O[C@H]2O[C@H](CO)[C@@H](O)[C@H](O)[C@H]2O)[C@H](O)[C@H]1O` [Dodecyl maltoside, n-dodecyl-β-D-maltopyranoside], the “Griseofulvin concentration (solubility of griseofulvin)” value (“Griseofulvin concentration” for short) in data set [1] (surfactant 0.811 mM in water) amounted to 10.1 µM; in data set [1] (surfactant 1.622 mM in water), 22.1 µM; in data set [1] (surfactant 4.054 mM in water), 58.2 µM; in data set [1] (surfactant 8.108 mM in water) it was 115.7 µM. The “degree of hemolysis, % H” value in data set [2] (surfactant 0.098 mM in blood/surfactant mixture) is on record as 0.456%; in data set [2] (surfactant 0.196 mM in blood/surfactant mixture), 1.047%; in data set [2] (surfactant 0.392 mM in blood/surfactant mixture), 2.987%; in data set [2] (surfactant 0.588 mM in blood/surfactant mixture), 4.772%; in data set [2] (surfactant 0.784 mM in blood/surfactant mixture) it was 7.157%; in data set [2] (surfactant 0.980 mM in blood/surfactant mixture), 7.563%. Besides, the “degree of hemolysis, % H” value in data set [2] (surfactant 1.177 mM in blood/surfactant mixture) was determined as 11.208%. Besides, in data set [2], the “Hemolytic activity (concentration range at which 5% hemolysis is obtained)” value was found to be 0.6 mM. In addition, the “Activity of lysis (concentration at which 10% lysis is obtained)” value in data set [3] stood at 0.8 mM.

As to “polyoxyethylene(23) lauryl ether [Brij ® 35]”, the “solubility of felodipine on addition of the surfactant (in words)” value in data set [4] is on record as “increased”. Also, the “Felodipine concentration (solubility of felodipine)” value in data set [4] (setting [7]) was <0.07 ^† mM; in data set [4] (surfactant 10.42 mM in 0.9% (w/w) NaCl), 1.7070 mM; in data set [4] (surfactant 20.84 mM in 0.9% (w/w) NaCl), 3.4064 mM; in data set [4] (surfactant 31.26 mM in 0.9% (w/w) NaCl), 5.1085 mM; in data set [4] (surfactant 41.680 mM in 0.9% (w/w) NaCl) it was 6.8927 mM. For the same compound, the “degree of hemolysis, % H” value came to 0.87% in data set [2] (surfactant 8.40 mM in blood/surfactant mixture); 2.37% in data set [2] (surfactant 16.80 mM in blood/surfactant mixture); 5.04% in data set [2] (surfactant 25.20 mM in blood/surfactant mixture); 7.44% in data set [2] (surfactant 33.60 mM in blood/surfactant mixture); 10.85% in data set [2] (surfactant 42.00 mM in blood/surfactant mixture). Further, the “Hemolytic activity (concentration range at which 5% hemolysis is obtained)” value in data set [2] was found to be 25 mM.

In the case of `CCCCCCCCO[C@@H]1O[C@H](CO)[C@@H](O[C@H]2O[C@H](CO)[C@@H](O)[C@H](O)[C@H]2O)[C@H](O)[C@H]1O` [Octyl maltoside, n-octyl-β-D-maltopyranoside], the “Griseofulvin concentration” value was determined as 323.2 µM in data set [1] (surfactant 117.6 mM in water), 442.5 µM in data set [1] (surfactant 235.1 mM in water), 445.1 µM in data set [1] (surfactant 587.8 mM in water) and 432 µM in data set [1] (surfactant 1175.7 mM in water).

Consider `COC1=CC(=O)C[C@@H](C)[C@]12Oc1c(Cl)c(OC)cc(OC)c1C2=O` [griseofulvin, Griseofulvin], for which the “solubility of griseofulvin in pure water” value in data set [5] is 23 µM.

Consider `OC[C@H]1O[C@H](O[C@H]2[C@H](O)[C@@H](O)[C@H](OCCCCCCC3CCCCC3)O[C@@H]2CO)[C@H](O)[C@@H](O)[C@@H]1O` [Cyclohexyl-hexyl maltoside, cyclohexyl-n-hexyl-β-D-maltopyranoside], for which the “Griseofulvin concentration” value amounted to 23.4 µM in data set [1] (surfactant 2.804 mM in water), 51 µM in data set [1] (surfactant 5.608 mM in water), 132.9 µM in data set [1] (surfactant 14.019 mM in water) and 272 µM in data set [1] (surfactant 28.038 mM in water). The “degree of lysis of erythrocytes, % L” value in data set [6] (surfactant 0.20 mM in mixture of erythrocytes and surfactant) amounted to 0.31%; in data set [6] (surfactant 0.40 mM in mixture of erythrocytes and surfactant) it was 1.96%; in data set [6] (surfactant 0.80 mM in mixture of erythrocytes and surfactant), 7.60%; in data set [6] (surfactant 1.00 mM in mixture of erythrocytes and surfactant), 9.67%; in data set [6] (surfactant 2.01 mM in mixture of erythrocytes and surfactant), 15.11%; in data set [6] (surfactant 2.50 mM in mixture of erythrocytes and surfactant), 20.28%. In data set [6] (surfactant concentration in mixture of erythrocytes and surfactant, read from lysis curves), the “Activity of lysis (concentration at which 10% lysis is obtained)” value was found to be 1.1 mM.

For “polyoxyethylene(20) stearyl ether [Brij ® 78]”, in data set [4], the “solubility of felodipine on addition of the surfactant (in words)” value is given as “increased”. The “Felodipine concentration (solubility of felodipine)” value in data set [4] (setting [7]) was <0.07 ^† mM; in data set [4] (surfactant 10.89 mM in 0.9% (w/w) NaCl), 2.64 mM; in data set [4] (surfactant 21.79 mM in 0.9% (w/w) NaCl) it was 5.22 mM; in data set [4] (surfactant 32.68 mM in 0.9% (w/w) NaCl), 7.76 mM; in data set [4] (surfactant 43.57 mM in 0.9% (w/w) NaCl), 10.25 mM. Moreover, the “degree of hemolysis, % H” value was determined as 1.09% in data set [2] (surfactant 3.48 mM in blood/surfactant mixture); 1.97% in data set [2] (surfactant 3.65 mM in blood/surfactant mixture); 2.47% in data set [2] (surfactant 3.83 mM in blood/surfactant mixture); 3.72% in data set [2] (surfactant 4.00 mM in blood/surfactant mixture); 6.14% in data set [2] (surfactant 4.17 mM in blood/surfactant mixture); 9.21% in data set [2] (surfactant 4.35 mM in blood/surfactant mixture). Moreover, the “Hemolytic activity (concentration range at which 5% hemolysis is obtained)” value in data set [2] was determined as 4 mM.
